In patent US12012412B2, “Solid forms of pyrazolo[3,4-d]pyrimidine compounds” (Pfizer Inc., priority 2021, dated 2024):
Values after ≈ are worked out from the molar mass of the structure shown.

Columns and labels:
Format in all cases: physicochemical
[1] = Aqueous solubility of Solid Form A in biologically relevant pH conditions at 25° C.; details: thermodynamic from solid
[2] = Gravimetric analysis (TGA/EGA) of Solid Form A; details: heated at 10° C./minute
Experimental: 10.9587 mg of Solid Form A was placed in a platinum crucible. This was analysed on a TA Instruments Discovery ThermoGravimetric Analyser, using a method that heated the sample from 25° C. to 300° C. at 10° C./minute with a nitrogen purge gas; alternatively, approximately 5-10 mg of material was weighed into an open aluminum pan and loaded into a simultaneous thermogravimetric/differential thermal analyzer (TG/DTA) and held at room temperature. The sample was then heated at a rate of 10° C./min from 20° C. to 400° C. during which time the change in sample weight was recorded along with any differential thermal events (DTA). Nitrogen was used as the purge gas, at a flow rate of 300 cm^3/min.

[3] = Water sorption (dynamic vapor sorption) of Solid Form A; details: 25° C.
Experimental: Solid Form A is non-hygroscopic, absorbing less than 0.05% water at 90% RH, 25° C. See FIG. 7 for the isotherm plot.

[4] = Particle size of batches of Solid Form A
Description: Primary particles from below 100 μm to around 500 μm in size, with soft agglomerates up to several millimeters, were observed. The D[4,3] of this material was 195 μm. This material was subsequently milled, to give far fewer large particles and an overall much smaller average primary particle size, giving a D[4,3] of 49.5 μm. See Table 8 for a comparison of particle size properties of various batches.

[5] = Solubility of Solid Form A and amorphous Compound X in various solvents at room temperature
[6] = Chemical and physical stability of Solid Form A (real-time and accelerated storage); details: for Time through which chemically and physically stable: unmilled, bulk packaging
[7] = Organic solubility: gravimetric (TGA) solubility at 25° C.
[8] = Physical stability of Solid Form A to milling
Experimental: Samples of Solid Form A were milled to reduce particle size.
Milled samples of Solid Form A were remilled, and exposed at 40° C./75% RH.

[9] = True density of Solid Form A
[10] = milled samples remilled, exposed at 40° C./75% RH

C[C@@H]1CN(Cc2ncccn2)C[C@H]1c1nc2c(cnn2C2CCOCC2)c(=O)[nH]1 [Solid Form A, 6-((3S,4S)-4-methyl-1-(pyrimidin-2-ylmethyl)pyrrolidin-3-yl)-1-(tetrahydro-2H-pyran-4-yl)-1,5-dihydro-4H-pyrazolo[3,4-d]pyrimidin-4-one]
solubility ([1]; aqueous buffer, 100 mM Citrate buffer, pH 4.5, 25° C.): > 55.9 mg/mL | solubility ([1]; aqueous buffer, 100 mM Citrate buffer, pH 6.0, 25° C.): > 52.2 mg/mL | solubility ([1]; aqueous buffer, 100 mM Phosphate buffer, pH 6.5, 25° C.): > 53.3 mg/mL | solubility ([1]; aqueous buffer, 100 mM Succinate buffer, pH 4.0, 25° C.): > 58.6 mg/mL | solubility ([1]; aqueous buffer, 100 mM Succinate buffer, pH 5.5, 25° C.): > 52.8 mg/mL | solubility ([1]; aqueous buffer, Phosphate buffered saline, pH 7.0, 25° C.): 42.1 mg/mL (≈ 106 mM) | solubility ([1]; aqueous buffer, Phosphate buffered saline, pH 7.4, 25° C.): 27.6 mg/mL (≈ 69.8 mM) | solubility ([1]; simulated gastric fluid, 0.01M HCl, pH 1.7, 25° C.): > 56.6 mg/mL | Temperature until which no significant degradation is seen (TGA) [2]: degradation until approximately 240 °C See FIG. 3. | Water Content, Desorption ([3]; 0 % RH): 0 % w/w | Water Content, Sorption ([3]; 0 % RH): 0 % w/w | Water Content, Desorption ([3]; 10 % RH): 0.01 % w/w | Water Content, Sorption ([3]; 10 % RH): 0.01 % w/w | Water Content, Desorption ([3]; 20 % RH): 0.01 % w/w | Water Content, Sorption ([3]; 20 % RH): 0.01 % w/w | Hygroscopicity [3]: non-hygroscopic | Water Content, Desorption ([3]; 30 % RH): 0.01 % w/w | Water Content, Sorption ([3]; 30 % RH): 0.01 % w/w | Water Content, Desorption ([3]; 40 % RH): 0.02 % w/w | Water Content, Sorption ([3]; 40 % RH): 0.02 % w/w | Water Content, Desorption ([3]; 50 % RH): 0.02 % w/w | Water Content, Sorption ([3]; 50 % RH): 0.02 % w/w | Water Content, Desorption ([3]; 60 % RH): 0.02 % w/w | Water Content, Sorption ([3]; 60 % RH): 0.02 % w/w | Water Content, Desorption ([3]; 70 % RH): 0.03 % w/w | Water Content, Sorption ([3]; 70 % RH): 0.03 % w/w | Water Content, Desorption ([3]; 80 % RH): 0.03 % w/w | Water Content, Sorption ([3]; 80 % RH): 0.03 % w/w | Water absorbed ([3]; 90% RH): less than 0.05% | Particle size D[4, 3] ([4]; after milling): 49.5 μm | Particle size D[4, 3] ([4]; unmilled material): 195 μm | Solubility (mg/ml) ([5]; 1,2-Xylene): >65.4 mg/mL | Solubility (mmol) ([5]; 1,2-Xylene): >165 mmol | Solubility (mg/ml) ([5]; Acetone): 49.4 mg/mL (≈ 125 mM) | Solubility (mmol) ([5]; Acetone): 125 mmol | Solubility (mmol) ([5]; Chloroform): >145 mmol | Solubility (mmol) ([5]; Dioxane): >117 mmol | Solubility (mg/ml) ([5]; EtOAc): 44.7 mg/mL (≈ 113 mM) | Solubility (mmol) ([5]; EtOAc): 113 mmol | Solubility (mmol) ([5]; EtOH): 160 mmol | Solubility (mmol) ([5]; Glyme (1,2-Dimethoxyethane)): >159 mmol | Solubility (mmol) ([5]; H2O (Water)): 89 mmol | Solubility (mmol) ([5]; H2O-EtOH (Water/EtOH)): >75 mmol | Solubility (mg/ml) ([5]; H2O-MeCN (Water/MeCN)): >27 mg/mL | Solubility (mmol) ([5]; H2O-MeCN (Water/MeCN)): >68 mmol | Solubility (mmol) ([5]; H2O-MeOH (Water/MeOH)): >87 mmol | Solubility (mg/ml) ([5]; H2O-acetone (Water/acetone)): >33.3 mg/mL | Solubility (mmol) ([5]; H2O-acetone (Water/acetone)): >84 mmol | Solubility (mmol) ([5]; Heptane): 1 mmol | Solubility (mg/ml) ([5]; IPA): 29.2 mg/mL (≈ 73.8 mM) | Solubility (mmol) ([5]; IPA): 74 mmol | Solubility (mmol) ([5]; MTBE): 17 mmol | solubility ([5]; MTBE, organic solvent or mixture): 6.7 mg/mL (≈ 16.9 mM) | Solubility (mg/ml) ([5]; MeCN): 47.8 mg/mL (≈ 121 mM) | Solubility (mmol) ([5]; MeCN): 121 mmol | Solubility (mmol) ([5]; MeOH): >181 mmol | Solubility (mmol) ([5]; Methoxy ethanol): >188 mmol | Solubility (mmol) ([5]; Nitromethane): >189 mmol | Solubility (mmol) ([5]; THF): >147 mmol | solubility ([5]; THF, organic solvent or mixture): > 58 mg/mL | Solubility (mg/ml) ([5]; Toluene): 52.2 mg/mL (≈ 132 mM) | Solubility (mmol) ([5]; Toluene): 132 mmol | solubility ([5]; chloroform, organic solvent or mixture): > 57.5 mg/mL | solubility ([5]; dioxane, organic solvent or mixture): > 46.3 mg/mL | solubility ([5]; ethanol (EtOH), organic solvent or mixture, EtOH): 63.4 mg/mL (≈ 160 mM) | solubility ([5]; glyme (1,2-dimethoxyethane), organic solvent or mixture): > 63 mg/mL | solubility ([5]; heptane, organic solvent or mixture): 0.6 mg/mL (≈ 1.52 mM) | solubility ([5]; methanol (MeOH), organic solvent or mixture, MeOH): > 71.4 mg/mL | solubility ([5]; methoxy ethanol, organic solvent or mixture): > 74.5 mg/mL | solubility ([5]; nitromethane, organic solvent or mixture): > 74.9 mg/mL | solubility ([5]; water, H2O (Water)): 35.3 mg/mL (≈ 89.3 mM) | solubility ([5]; water/EtOH, aqueous with cosolvent or surfactant or cyclodextrin, H2O-EtOH (Water/EtOH)): > 29.8 mg/mL | solubility ([5]; water/MeOH, aqueous with cosolvent or surfactant or cyclodextrin, H2O-MeOH (Water/MeOH)): > 34.2 mg/mL | Stability on storage ([6]; milled, 70° C./75% RH, 1 week): no change in stability | Time through which chemically and physically stable ([6]; 40° C./75% RH accelerated conditions): ≥ 6 months | Time through which chemically and physically stable ([6]; room temperature conditions (63 months @ 15-30° C. and 21 months at 25° C./60% RH)): ≥ 84 months | solubility ([7]; Acetone): 125 mmol | solubility ([7]; EtOAc): 113 mmol | solubility ([7]; EtOH): 160 mmol | solubility ([7]; H2O): 89 mmol | solubility ([7]; Heptane): 1 mmol | solubility ([7]; IPA): 74 mmol | solubility ([7]; MTBE): 17 mmol | solubility ([7]; MeCN): 121 mmol | solubility ([7]; Toluene): 132 mmol | solubility ([7]; ethanol (EtOH), organic solvent or mixture, thermodynamic from solid, EtOH, read-out: Solubility): 63.4 mg/mL (≈ 160 mM) | solubility ([7]; ethyl acetate (EtOAc), organic solvent or mixture, thermodynamic from solid, EtOAc, read-out: Solubility): 44.7 mg/mL (≈ 113 mM) | solubility ([7]; organic solvent or mixture, thermodynamic from solid, Acetone, read-out: Solubility): 49.4 mg/mL (≈ 125 mM) | solubility ([7]; organic solvent or mixture, thermodynamic from solid, Heptane, read-out: Solubility): 0.6 mg/mL (≈ 1.52 mM) | solubility ([7]; organic solvent or mixture, thermodynamic from solid, IPA, read-out: Solubility): 29.2 mg/mL (≈ 73.8 mM) | solubility ([7]; organic solvent or mixture, thermodynamic from solid, MTBE, read-out: Solubility): 6.7 mg/mL (≈ 16.9 mM) | solubility ([7]; organic solvent or mixture, thermodynamic from solid, MeCN, read-out: Solubility): 47.8 mg/mL (≈ 121 mM) | solubility ([7]; organic solvent or mixture, thermodynamic from solid, Toluene, read-out: Solubility): 52.2 mg/mL (≈ 132 mM) | solubility ([7]; water, thermodynamic from solid, H2O, read-out: Solubility): 35.3 mg/mL (≈ 89.3 mM) | Change in crystallinity (XRPD) [8, 10]: no sign of a decrease in crystallinity | Form change (XRPD) [8, 10]: no sign of form change | Impact of milling upon polymorphic form ([8]; milled to reduce particle size): No impact upon polymorphic form | True Density (crystal structure) ([9]; from crystal structure): 1.279 Mg/m^3 | True Density (measured) ([9]; measured): 1.29 Mg/m^3
